Seven compounds from US20240382483A1, “HETEROCYCLIC EGFR INHIBITORS FOR USE IN THE TREATMENT OF CANCER” (Blueprint Medicines Corporation, priority 2021, published 2024) can be followed below.

In one experiment the target is T1, EGFR (L858R T790M C797S) (Homo sapiens, UniProt P00533, C797S/L858R/T790M).
T1 construct: purchased SignalChem E10-122VG
As to the kind of experiment: Biochemical EGFR inhibition assay (Caliper mobility shift), EGFR LRTMCS. The settings on record: LRTMCS (PH) IC50 (nM) @ 1 mM ATP (Num), EGFR LRTMCS mutant. In outline:
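Kinase reactions at 25 °C run to 10–20% peptide phosphorylation, stopped with 35 mM EDTA. Phosphorylated product and substrate separated electrophoretically by mobility shift. Apparent IC50 from percent activity versus log compound concentration.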

Experiment [1] deals with T2, intracellular phosphorylation of EGFR in NCI-H1975 cell line that harbors the EGFR L858R T790M mutations (Homo sapiens, UniProt P00533, L858R/T790M).
T2 construct: NCI-H1975 cell line that harbors the EGFR L858R T790M mutations (ATCC, CRL-5908); host or cells: NCI-H1975
As to the kind of experiment: NCI-H1975 pEGFR AlphaLISA assay. The class given is cell-based. The following applies: NCI-H1975 cells (EGFR L858R T790M), p-EGFR (Tyr1068), 4-5 hours incubation; read-out: Ext pEGFR H1975 GMean IC50 (nM) Protocol: @Pharmaron AlphaLISA (Num). The method, then: On the next day, the test compounds and DMSO control were added into H1975 cell plate followed by incubation at 37C/5% CO2 for 4-5 hours. […] Then 5 μL of a donor bead mix was added to each well followed by overnight incubation at room temperature in dark. On the next day, the plate was read at a compatible plate reader to obtain pEGFR signal. Percent of pEGFR inhibition was plotted against log concentration of compounds to generate IC50 values.

T1 sequence (P00533 25-1210 T790M/C797S/L858R): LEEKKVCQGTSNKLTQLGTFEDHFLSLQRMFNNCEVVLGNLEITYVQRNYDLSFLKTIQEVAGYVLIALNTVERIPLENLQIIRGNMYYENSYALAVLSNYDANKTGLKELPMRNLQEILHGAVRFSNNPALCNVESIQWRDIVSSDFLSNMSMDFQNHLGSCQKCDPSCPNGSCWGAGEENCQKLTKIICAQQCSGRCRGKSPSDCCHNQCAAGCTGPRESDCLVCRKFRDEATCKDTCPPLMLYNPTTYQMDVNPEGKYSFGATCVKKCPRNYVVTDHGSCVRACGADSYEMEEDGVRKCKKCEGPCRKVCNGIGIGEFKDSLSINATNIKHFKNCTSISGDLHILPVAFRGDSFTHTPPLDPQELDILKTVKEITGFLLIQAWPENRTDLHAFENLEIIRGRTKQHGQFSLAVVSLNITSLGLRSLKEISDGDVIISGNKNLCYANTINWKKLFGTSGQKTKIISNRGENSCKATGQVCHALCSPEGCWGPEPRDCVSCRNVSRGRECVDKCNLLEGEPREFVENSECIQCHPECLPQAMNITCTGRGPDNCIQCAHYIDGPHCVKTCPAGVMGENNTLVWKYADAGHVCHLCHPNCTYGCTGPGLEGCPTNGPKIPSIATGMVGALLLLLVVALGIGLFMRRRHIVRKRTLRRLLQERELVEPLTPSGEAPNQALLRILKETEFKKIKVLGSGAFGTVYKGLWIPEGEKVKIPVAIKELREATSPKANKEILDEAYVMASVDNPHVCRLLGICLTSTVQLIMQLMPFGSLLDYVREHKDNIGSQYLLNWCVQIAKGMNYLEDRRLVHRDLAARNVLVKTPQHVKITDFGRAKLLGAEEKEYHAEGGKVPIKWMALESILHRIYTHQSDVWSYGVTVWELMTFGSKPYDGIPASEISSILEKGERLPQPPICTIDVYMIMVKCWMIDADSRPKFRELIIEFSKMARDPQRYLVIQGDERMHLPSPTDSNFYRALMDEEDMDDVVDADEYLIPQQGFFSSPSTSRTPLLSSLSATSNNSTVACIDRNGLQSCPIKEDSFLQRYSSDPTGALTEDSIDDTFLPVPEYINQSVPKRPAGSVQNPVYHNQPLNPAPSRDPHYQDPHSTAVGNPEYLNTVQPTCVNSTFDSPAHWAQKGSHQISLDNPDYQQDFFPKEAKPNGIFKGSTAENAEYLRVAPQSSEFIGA
T2 sequence (P00533 25-1210 T790M/L858R): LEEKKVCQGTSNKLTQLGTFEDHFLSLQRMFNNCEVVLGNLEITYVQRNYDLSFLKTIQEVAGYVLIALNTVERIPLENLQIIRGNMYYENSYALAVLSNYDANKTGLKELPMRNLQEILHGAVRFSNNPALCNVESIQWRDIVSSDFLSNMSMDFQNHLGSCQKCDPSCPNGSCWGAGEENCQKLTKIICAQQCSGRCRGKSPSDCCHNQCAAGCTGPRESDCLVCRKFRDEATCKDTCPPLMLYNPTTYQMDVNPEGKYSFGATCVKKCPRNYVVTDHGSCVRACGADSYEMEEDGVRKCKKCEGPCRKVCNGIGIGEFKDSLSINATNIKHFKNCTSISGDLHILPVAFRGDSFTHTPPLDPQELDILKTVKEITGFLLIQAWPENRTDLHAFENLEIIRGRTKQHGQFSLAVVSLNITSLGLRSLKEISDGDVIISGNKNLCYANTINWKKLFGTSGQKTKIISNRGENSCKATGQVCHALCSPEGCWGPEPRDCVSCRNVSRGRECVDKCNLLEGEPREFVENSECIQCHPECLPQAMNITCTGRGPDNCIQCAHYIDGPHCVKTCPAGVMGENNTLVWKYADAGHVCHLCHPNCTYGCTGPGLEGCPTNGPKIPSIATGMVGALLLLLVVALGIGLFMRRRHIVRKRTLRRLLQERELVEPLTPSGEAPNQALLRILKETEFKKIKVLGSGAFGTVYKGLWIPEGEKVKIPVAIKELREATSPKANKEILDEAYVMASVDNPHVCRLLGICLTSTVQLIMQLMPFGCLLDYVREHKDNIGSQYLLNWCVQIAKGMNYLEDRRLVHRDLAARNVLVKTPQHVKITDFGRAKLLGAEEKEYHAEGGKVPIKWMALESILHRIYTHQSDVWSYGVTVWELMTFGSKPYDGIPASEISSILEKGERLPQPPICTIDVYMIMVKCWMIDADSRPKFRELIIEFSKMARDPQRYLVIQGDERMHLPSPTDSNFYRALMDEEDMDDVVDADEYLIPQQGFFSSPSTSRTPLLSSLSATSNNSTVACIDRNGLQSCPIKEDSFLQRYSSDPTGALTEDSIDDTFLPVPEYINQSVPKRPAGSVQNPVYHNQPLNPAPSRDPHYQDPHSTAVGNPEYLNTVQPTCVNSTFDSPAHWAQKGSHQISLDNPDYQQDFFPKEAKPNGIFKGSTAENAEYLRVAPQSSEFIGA

Usually IC50 stands for the concentration needed to halve the response being measured. On to `C[C@@H]1[C@@H](O)CN1c1ncc(C2CC2)c2cc(Nc3ccnc(N4CC[C@@H](O)[C@@](C)(F)C4)n3)ncc12` [Example 102, (3S,4R)-1-(4-((5-cyclopropyl-8-((2R,3S)-3-hydroxy-2-methylazetidin-1-yl)-2,7-naphthyridin-3-yl)amino)pyrimidin-2-yl)-3-fluoro-3-methylpiperidin-4-ol], for which the IC50 on EGFR (L858R T790M C797S) was 20 to 30 nM; in experiment [1], more than 50 nM.

As for `CC(C)c1cnc(N2CC3(CCS3(=O)=O)C2)c2cnc(Nc3ccnc(N4CC[C@@](C)(O)[C@@H](F)C4)n3)cc12` (single isomer, unassigned) [Example 175, 6-(6-((2-((3S,4R)-3-fluoro-4-hydroxy-4-methylpiperidin-1-yl)pyrimidin-4-yl)amino)-4-isopropyl-2,7-naphthyridin-1-yl)-1-thia-6-azaspiro[3.3]heptane 1,1-dioxide or 6-(6-((2-((3R,4S)-3-fluoro-4-hydroxy-4-methylpiperidin-1-yl)pyrimidin-4-yl)amino)-4-isopropyl-2,7-naphthyridin-1-yl)-1-thia-6-azaspiro[3.3]heptane 1,1-dioxide], the half-maximal inhibitory concentration (IC50) on EGFR (L858R T790M C797S) was less than 15 nM; in experiment [1], more than 50 nM.

`COC1CN(c2ncc(C(C)C)c3cc(Nc4ccnc(N5CC[C@@H](O)[C@@](C)(F)C5)n4)ncc23)C1` [Example 51, (3S,4R)-3-fluoro-1-(4-((5-isopropyl-8-(3-methoxyazetidin-1-yl)-2,7-naphthyridin-3-yl)amino)pyrimidin-2-yl)-3-methylpiperidin-4-ol]: the half-maximal inhibitory concentration (IC50) was less than 15 nM at EGFR (L858R T790M C797S) and 20 to 30 nM in experiment [1].

Take `CC(C)c1cnc(N2CCC23COC3)c2cnc(Nc3ccnc(N4CC[C@@H](O)[C@@](C)(F)C4)n3)cc12` [Example 53, (3S,4R)-3-fluoro-1-(4-((5-isopropyl-8-(6-oxa-1-azaspiro[3.3]heptan-1-yl)-2,7-naphthyridin-3-yl)amino)pyrimidin-2-yl)-3-methylpiperidin-4-ol]: the IC50 on EGFR (L858R T790M C797S) is less than 15 nM; in experiment [1] it was 20 to 30 nM.

`CC(C)c1cnc(-c2nnc(C(C)(C)O)o2)c2cnc(Nc3ccnc(N4CC[C@@H](O)[C@@](C)(F)C4)n3)cc12` [Example 27, (3S,4R)-3-fluoro-1-(4-((8-(5-(2-hydroxypropan-2-yl)-1,3,4-oxadiazol-2-yl)-5-isopropyl-2,7-naphthyridin-3-yl)amino)pyrimidin-2-yl)-3-methylpiperidin-4-ol]: the 50% inhibitory concentration (IC50) at EGFR (L858R T790M C797S) was less than 15 nM; in experiment [1] it was more than 50 nM.

As for `CC(C)c1cnc(N2CC(O)C2)c2cnc(Nc3ccnc(N4CC[C@@H](O)[C@@](C)(F)C4)n3)cc12` [Example 62, (3S,4R)-3-fluoro-1-(4-((8-(3-hydroxyazetidin-1-yl)-5-isopropyl-2,7-naphthyridin-3-yl)amino)pyrimidin-2-yl)-3-methylpiperidin-4-ol], the figures for the IC50 (at EGFR (L858R T790M C797S); in experiment [1]) were less than 15 nM and 30 to 50 nM, respectively.

For the compound `CC(C)c1cnc(N2CC[C@]23CCN(C)C3)c2cnc(Nc3ccnc(N4CC[C@@H](O)[C@@](C)(F)C4)n3)cc12` (single isomer, unassigned) [Example 198, (3S,4R)-3-fluoro-1-(4-((5-isopropyl-8-((S)-6-methyl-1,6-diazaspiro[3.4]octan-1-yl)-2,7-naphthyridin-3-yl)amino)pyrimidin-2-yl)-3-methylpiperidin-4-ol or (3S,4R)-3-fluoro-1-(4-((5-isopropyl-8-((R)-6-methyl-1,6-diazaspiro[3.4]octan-1-yl)-2,7-naphthyridin-3-yl)amino)pyrimidin-2-yl)-3-methylpiperidin-4-ol], the concentration for half-maximal inhibition (IC50) at EGFR (L858R T790M C797S) fell in the range of 15 to 20 nM; in experiment [1], 30 to 50 nM.
